Source: patent publication US20200032347A1, “RNA profiling for individualized diet and treatment advice” (Stichting Katholieke Universiteit, priority 2017, published 2020)

Assays:
SKRC-17 cells = test: Cell proliferation assay (SRB, cellular protein content); format: cell-based, human; settings: proliferation assays
Experimental: (§1) Cellular protein content was determined as a measure of cell proliferation, using suforhodamine B (SRB) assays as described in (83). Sensitivity to EGCG was determined by adding a concentration range of EGCG (0-50 μM) or DMSO solvent one day after seeding 1,000 cells per well in 96-wells plates (Nunc, Roskilde, Denmark). An SRB assay was performed after 3 days, and IC50 values were determined in GraphPad Prism using the sigmoidal dose response with variable slope nonlinear regression analysis.
(§2) Furthermore cell proliferation over 8 days in presence or absence of EGCG was determined. Cells were seeded at 1,000 cells per well and at day 1 and day 5 after seeding the medium was changed for medium with or without 10 μM EGCG. Controls were incubated with DMSO. Protein content was determined every 2 days. Experiments were performed in triplicate and statistical significance was determined using one-way ANOVA with bonferroni correction.

SKRC-7 cells = test: as above; format: cell-based, human; settings: proliferation assays
Experimental: as §1, §2

In the case of `NC(=O)c1ccc(N)nc1` [Compound 6-AN, 6-aminonicotinamide], the cell proliferation response (SKRC-17 cells) is reported as “significantly decreased cell proliferation” and the cell proliferation response (SKRC-7 cells) is reported as “increase of cell proliferation”.
